Experimental data as given in patent US9919998B2, “Antibacterial agents: Nα-aroyl-N-aryl-phenylalaninamides” (priority 2014, dated 2018).
Converted amounts (≈) assume the structure as drawn. “And” between values parts separate entries of the source, which are not always exact repeats. Equal entries are not always repeated. Where two headings read alike, the source gives them in different places.

Key:
[1] = system: Mycobacterium tuberculosis H37Rv; assay: Microplate Alamar Blue assay (MABA) MIC, M. tuberculosis; assay type: cell-based
From the text: (§1) Minimal inhibitory concentrations (MICs) in Mycobacterium tuberculosis H37Rv and Mycobacterium avium ATCC 25291 were quantified using microplate Alamar Blue assays as described (MABA; [Collins, L. & Franzblau, S. (1997) Microplate Alamar Blue assay versus BACTEC 460 system for high-throughput screening of compounds against Mycobacterium tuberculosis and Mycobacterium avium. Antimicrob. Agents Chemother. 41, 1004-1009]).

[2] = system: Mycobacterium avium ATCC 25291; assay: Microplate Alamar Blue assay (MABA) MIC, M. avium; assay type: cell-based; settings: ATCC25291, M. avium ATCC 25291
From the text: as §1

[3] = system: Mycobacterium smegmatis ATCC 19420; assay: Broth microdilution MIC, M. smegmatis; assay type: cell-based; settings: Mycolicibacterium smegmatis
From the text: (§2) MICs in Mycobacterium smegmatis ATCC 19420 and Mycobacterium smegmatis ATCC 19420 derivatives were quantified using broth microdilution assays as described [Clinical and Laboratory Standards Institute (CLSI/NCCLS) (2009) Methods for Dilution Antimicrobial Susceptibility Tests for Bacteria That Grow Aerobically; Approved Standard, Eighth Edition. CLIS Document M07-A8 (CLIS, Wayne Pa.)].

[4] = system: Mycobacterium smegmatis, Mycobacterium tuberculosis, and Mycobacterium avium; assay: organism not typed; assay type: cell-based; settings: read-out: MICs, inhibition of mycobacterial growth
[5] = molecular target: Mycobacterium tuberculosis RNA polymerase (Mycobacterium tuberculosis, UniProt P9WGY7+P9WGY9); assay: Run-off transcription assay with Mycobacterium tuberculosis RNA polymerase (radiochemical); assay type: biochemical
Method: Run-off transcription assays with Mycobacterium tuberculosis RNA polymerase were performed using reaction mixtures containing (10 μl): 0-100 μM test compound, 75 nM Mycobacterium tuberculosis RNA polymerase core enzyme, 300 nM Mycobacterium tuberculosis σ^A, 20 nM 130 bp DNA fragment containing positions −100 to −1 of the bacteriophage […] N25 promoter followed by positions +1 to +30 of the lacUV5-15 promoter of [Mukhopadhyay, J., Kapanidis, A., Mekler, V., Kortkhonjia, E., Ebright, Y., Ebright, R. (2001) Cell 106, 453-463], 25 nM [alpha-^32P]UTP (600 Bq/pmol) for an initial 2 min at 37° C. and 100 μM [alpha-^32P]UTP (6 Bq/pmol) for a subsequent 5 min at 37° C., 100 μM ATP, 100 μM GTP, 100 μM UTP, 100 μM CTP, 40 mM Tris-HCl, pH 8.0, 80 mM NaCl, 5 mM MgCl2, 2.5 mM DTT, and 12.7% glycerol. Reactions were terminated by addition of […] 80% formamide, 10 mM EDTA, 0.04% bromophenol blue, and 0.04% xylene cyanol, followed by heating for 5 min at 90° C. Reaction products were resolved by 15% urea-PAGE, and quantified using a storage-phosphor scanner.

[6] = system: rifampin-resistant mutants, derivatives of M. smegmatis ATCC19420; assay: MICs in rifampin-resistant mutants (cross-resistance levels); assay type: cell-based, Mycobacterium smegmatis
From the text: as §2

[7] = system: AAP1-resistant mutants, derivatives of M. smegmatis ATCC19420; assay: MICs in AAP1-resistant mutants (resistance and cross-resistance levels); assay type: cell-based, Mycobacterium smegmatis; settings: for cross-resistance of AAP1-resistant mutants to the compound: MICs in AAP1-resistant mutants
[8] = system: Vero E6 ATCC CRL1586 cells; assay: Mammalian-cell cytotoxicity, minimal cytotoxic concentration (CellTiter96); assay type: cell-based
Method: Minimal cytotoxic concentrations (MCCs) against mammalian cells in culture were determined using Vero E6 ATCC CRL1586 cells and the CellTiter96 assay kit (Promega, Inc.). […]

[9] = system: Mycobacterium smegmatis ATCC 19420; assay: Spontaneous resistance rate, fluctuation assays; assay type: cell-based; settings: 96 h fluctuation assays, M. smegmatis ATCC19420
Method: Resistance rates were determined using fluctuation assays [Luria, S., Delbrück, M. (1943) Genetics 28, 491-511.]. […] (at least 3 independent determinations for each concentration of each test compound). Resistance rates and 95% confidence intervals were calculated using the Ma-Sandri-Sarkar Maximum Likelihood Estimator (MSS-MLE [Ma, W., Sandri, GvH., Sarkar, S. (1992.) J. Appl. Probab. 29, 255-267; Sarkar, S., Ma, W., Sandri, GvH. (1992) Genetica 85, 173-179]) as implemented on the Fluctuation Analysis Calculator (FALCOR; www.keshavsingh.org/protocols/FALCOR.html [Hall, B., Ma, C., Liang, P., Singh, K (2009) Bioinformatics 25, 1564-1565]). Sampling correction was performed as in [Stewart, F., Gordon, D., Levin, B. (1990) Genetics 124, 175-185; Jones, M. (1993) Mutat. Res. 292, 187-189].

[10] = read-out: MIC Mycobacterium tuberculosis H37Rv
[11] = ATCC19420, M. smegmatis ATCC 19420, read-out: MIC Mycobacterium smegmatis ATCC 19420
[12] = IC50 Mycobacterium tuberculosis RNA polymerase
[13] = Inhibition of mycobacterial RNA polymerase (IC50s), radiochemical transcription assays, M. tuberculosis RNA polymerase

Mycobacterium tuberculosis RNA polymerase, sequence (P9WGZ1 whole entry, the tested form may be a part): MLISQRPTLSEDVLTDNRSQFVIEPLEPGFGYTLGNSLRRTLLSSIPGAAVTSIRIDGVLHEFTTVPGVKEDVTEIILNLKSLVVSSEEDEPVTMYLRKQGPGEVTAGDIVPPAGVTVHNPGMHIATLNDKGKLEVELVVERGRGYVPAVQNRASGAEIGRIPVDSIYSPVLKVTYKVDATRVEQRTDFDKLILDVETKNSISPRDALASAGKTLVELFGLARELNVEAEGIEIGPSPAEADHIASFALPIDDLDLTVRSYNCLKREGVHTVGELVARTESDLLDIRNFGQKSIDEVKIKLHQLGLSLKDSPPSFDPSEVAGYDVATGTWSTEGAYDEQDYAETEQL
Mycobacterium tuberculosis RNA polymerase, sequence (P9WGY5 whole entry, further chain, the tested form may be a part): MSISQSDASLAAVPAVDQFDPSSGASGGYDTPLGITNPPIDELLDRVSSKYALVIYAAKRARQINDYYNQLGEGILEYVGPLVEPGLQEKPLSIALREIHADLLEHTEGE
Mycobacterium tuberculosis RNA polymerase, sequence (P9WGY9 whole entry, the tested form may be a part): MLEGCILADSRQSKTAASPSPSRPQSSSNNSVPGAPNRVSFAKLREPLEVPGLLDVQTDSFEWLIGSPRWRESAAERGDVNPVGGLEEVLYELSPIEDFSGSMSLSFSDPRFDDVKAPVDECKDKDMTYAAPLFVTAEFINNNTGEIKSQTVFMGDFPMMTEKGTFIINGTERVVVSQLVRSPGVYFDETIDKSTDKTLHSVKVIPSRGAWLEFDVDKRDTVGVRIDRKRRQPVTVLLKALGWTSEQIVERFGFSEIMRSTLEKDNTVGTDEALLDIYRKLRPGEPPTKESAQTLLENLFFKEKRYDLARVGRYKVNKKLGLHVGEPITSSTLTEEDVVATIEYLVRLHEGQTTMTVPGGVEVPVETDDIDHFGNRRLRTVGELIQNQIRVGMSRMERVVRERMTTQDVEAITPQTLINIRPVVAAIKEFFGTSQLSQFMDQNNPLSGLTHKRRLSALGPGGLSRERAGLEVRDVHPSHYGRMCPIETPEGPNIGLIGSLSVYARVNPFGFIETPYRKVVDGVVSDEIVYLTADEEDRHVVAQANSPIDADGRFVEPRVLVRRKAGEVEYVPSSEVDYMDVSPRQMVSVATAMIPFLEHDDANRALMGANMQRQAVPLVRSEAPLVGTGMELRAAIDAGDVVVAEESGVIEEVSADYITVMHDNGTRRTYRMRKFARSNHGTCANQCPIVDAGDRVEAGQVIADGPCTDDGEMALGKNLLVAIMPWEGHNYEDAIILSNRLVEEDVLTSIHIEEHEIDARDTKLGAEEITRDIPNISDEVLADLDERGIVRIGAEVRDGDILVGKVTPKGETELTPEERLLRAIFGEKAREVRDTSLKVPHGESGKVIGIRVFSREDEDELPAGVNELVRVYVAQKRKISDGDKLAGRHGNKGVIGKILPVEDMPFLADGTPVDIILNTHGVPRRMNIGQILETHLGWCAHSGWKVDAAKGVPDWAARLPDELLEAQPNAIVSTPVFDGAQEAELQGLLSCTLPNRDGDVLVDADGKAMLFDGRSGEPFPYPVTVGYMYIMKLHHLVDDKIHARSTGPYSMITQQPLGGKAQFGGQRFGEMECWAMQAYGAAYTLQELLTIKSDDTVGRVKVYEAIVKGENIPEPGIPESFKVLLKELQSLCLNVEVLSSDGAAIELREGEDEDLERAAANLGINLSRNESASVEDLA
Mycobacterium tuberculosis RNA polymerase, sequence (P9WGI1 whole entry, further chain, the tested form may be a part): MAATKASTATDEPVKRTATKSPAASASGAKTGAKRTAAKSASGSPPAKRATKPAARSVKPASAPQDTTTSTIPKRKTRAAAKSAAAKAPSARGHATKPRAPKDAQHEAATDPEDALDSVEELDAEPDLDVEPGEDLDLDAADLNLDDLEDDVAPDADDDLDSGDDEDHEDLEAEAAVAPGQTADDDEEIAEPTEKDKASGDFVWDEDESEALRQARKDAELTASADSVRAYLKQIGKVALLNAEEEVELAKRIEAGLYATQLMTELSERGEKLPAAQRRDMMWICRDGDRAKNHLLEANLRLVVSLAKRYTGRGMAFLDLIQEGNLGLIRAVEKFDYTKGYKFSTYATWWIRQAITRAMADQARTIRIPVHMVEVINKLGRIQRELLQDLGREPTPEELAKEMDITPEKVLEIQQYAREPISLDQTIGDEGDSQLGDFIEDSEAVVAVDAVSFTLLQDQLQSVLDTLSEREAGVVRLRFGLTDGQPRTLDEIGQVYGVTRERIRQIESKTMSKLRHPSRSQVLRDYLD
Mycobacterium tuberculosis RNA polymerase, sequence (P9WGY7 whole entry, the tested form may be a part): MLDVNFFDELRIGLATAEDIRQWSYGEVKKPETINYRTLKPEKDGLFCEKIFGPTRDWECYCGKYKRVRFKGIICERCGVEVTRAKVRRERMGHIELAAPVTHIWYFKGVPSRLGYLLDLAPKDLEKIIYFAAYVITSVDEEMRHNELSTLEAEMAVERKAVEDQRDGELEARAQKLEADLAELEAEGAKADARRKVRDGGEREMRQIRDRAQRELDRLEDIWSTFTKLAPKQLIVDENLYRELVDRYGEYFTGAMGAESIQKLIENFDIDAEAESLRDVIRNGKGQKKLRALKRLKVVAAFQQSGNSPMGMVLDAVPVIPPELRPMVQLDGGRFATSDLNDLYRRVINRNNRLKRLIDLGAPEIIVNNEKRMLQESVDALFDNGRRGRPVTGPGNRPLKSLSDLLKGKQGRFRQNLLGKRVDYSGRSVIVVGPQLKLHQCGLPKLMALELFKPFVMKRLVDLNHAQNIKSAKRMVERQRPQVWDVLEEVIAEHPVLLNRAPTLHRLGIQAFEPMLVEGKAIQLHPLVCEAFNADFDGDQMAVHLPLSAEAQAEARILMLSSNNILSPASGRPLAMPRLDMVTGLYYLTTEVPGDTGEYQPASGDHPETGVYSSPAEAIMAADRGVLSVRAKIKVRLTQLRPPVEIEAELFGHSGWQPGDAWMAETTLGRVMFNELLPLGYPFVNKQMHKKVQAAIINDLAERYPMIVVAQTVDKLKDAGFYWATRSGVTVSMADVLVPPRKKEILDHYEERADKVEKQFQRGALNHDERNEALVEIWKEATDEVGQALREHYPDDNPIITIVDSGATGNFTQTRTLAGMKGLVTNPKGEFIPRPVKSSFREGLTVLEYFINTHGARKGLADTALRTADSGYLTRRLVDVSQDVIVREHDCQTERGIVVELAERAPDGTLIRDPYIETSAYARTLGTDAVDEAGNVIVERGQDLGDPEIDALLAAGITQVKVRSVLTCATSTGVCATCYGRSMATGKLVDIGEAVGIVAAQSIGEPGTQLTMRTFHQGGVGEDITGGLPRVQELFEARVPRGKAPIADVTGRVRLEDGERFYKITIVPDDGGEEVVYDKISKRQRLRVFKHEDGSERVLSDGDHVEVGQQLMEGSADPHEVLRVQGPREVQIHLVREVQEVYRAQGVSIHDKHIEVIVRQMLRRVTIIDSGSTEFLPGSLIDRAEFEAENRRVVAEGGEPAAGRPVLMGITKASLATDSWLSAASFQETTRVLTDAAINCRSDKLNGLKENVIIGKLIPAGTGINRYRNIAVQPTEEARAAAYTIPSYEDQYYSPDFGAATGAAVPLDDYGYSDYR

Row | SMILES | MIC [1, 10] [µg/mL] | MIC [2] [µg/mL] | MIC [3, 11] [µg/mL] | MIC [4] [µg/mL] | IC50 [5, 12] [nM] | IC50 [5, 13] | cross-resistance of rifampin-resistant mutants to the compound [6] | cross-resistance of AAP1-resistant mutants to the compound [7] | MCC mammalian cells Vero E6 ATCC CRL1586 [8] [µg/mL] | hypersensitivity of rifampin-resistant mutants to the compound [6] | MIC ([1]; MABA-MIC assays, read-out: Inhibition of mycobacterial growth in culture (MICs)) [µg/mL] | spontaneous resistance rate at 2xMIC ([9]; 2xMIC) | spontaneous resistance rate at 4xMIC ([9]; 4xMIC) | spontaneous resistance rate at 8xMIC ([9]; 8xMIC) | resistance of tested AAP1-resistant mutants ([7]; all tested AAP1-resistant mutants) [fold] | MIC ([3]; ATCC19420, broth microdilution assays, M. smegmatis ATCC19420, read-out: Inhibition of mycobacterial growth in culture (MICs)) [µg/mL] | MIC ([3]; ATCC19420, read-out: MIC with wild-type rpoB and wild-type rpoC, M. smegmatis ATCC19420 wild type, reference for AAP1-resistant mutants) [µg/mL]
1 | O=C(N[C@H](Cc1ccccc1)C(=O)Nc1cc(F)ccc1N1CCNCC1)c1ccccc1F [IX-214a, (R)-2-fluoro-N-(1-((5-fluoro-2-(piperazin-1-yl)phenyl)amino)-1-oxo-3-phenylpropan-2-yl)benzamide] | 0.78 (≈ 1.68 µM) | < 0.195 | 0.073 (≈ 0.157 µM) | ≥ 0.073 |  |  |  |  |  |  |  |  |  |  |  |  | 
2 | O=C(N[C@H](Cc1ccccc1)C(=O)Nc1cc(Cl)ccc1N1CCNCC1)c1ccccc1F [IX-274a, (R)—N-(1-((5-chloro-2-(piperazin-1-yl)phenyl)amino)-1-oxo-3-phenylpropan-2-yl)-2-fluorobenzamide] | 0.78 (≈ 1.62 µM) | 0.39 (≈ 0.811 µM) | 0.073 (≈ 0.152 µM) | ≥ 0.073 | 17 | ≥ 10 nM and 10 to 74 nM |  |  |  |  |  |  |  |  |  |  | 
3 | O=C(NC(Cc1ccccc1)C(=O)Nc1cc(F)ccc1N1CCNCC1)c1ccccc1F (racemic) [IX-214, 2-fluoro-N-(1-((5-fluoro-2-(piperazin-1-yl)phenyl)amino)-1-oxo-3-phenylpropan-2-yl)benzamide] | 1.56 (≈ 3.36 µM) | 1.56 (≈ 3.36 µM) | 0.195 (≈ 0.42 µM) | ≥ 0.073 |  |  | No rifampin-resistant mutant was found to exhibit cross-resistance | cross-resistance | 7 |  |  |  |  |  |  |  | 
4 | Cc1ccccc1C(=O)NC(Cc1ccccc1)C(=O)Nc1cc(F)ccc1N1CCNCC1 (stereo not shown) [IX-215, N-(1-((5-fluoro-2-(piperazin-1-yl)phenyl)amino)-1-oxo-3-phenylpropan-2-yl)-2-methylbenzamide] | 1.56 (≈ 3.39 µM) | 0.78 (≈ 1.69 µM) | 0.19 (≈ 0.413 µM) |  | 140 |  | No rifampin-resistant mutant was found to exhibit cross-resistance | cross-resistance | 7 |  |  |  |  |  |  |  | 
5 | Cc1ccccc1NC(=O)C(Cc1ccc(O)cc1)NC(=O)c1ccccc1 (stereo not shown) [I-13, N-(3-(4-hydroxyphenyl)-1-oxo-1-(o-tolylamino)propan-2-yl)benzamide] | 12.5 (≈ 33.4 µM) | 25 (≈ 66.8 µM) | 0.195 (≈ 0.521 µM) |  |  |  | No rifampin-resistant mutant was found to exhibit cross-resistance | cross-resistance | 37 |  |  |  |  |  |  |  | 
6 | O=C(NC(Cc1ccccc1)C(=O)Nc1ccccc1N1CCNCC1)c1cccs1 (stereo not shown) [IX-213, N-(1-oxo-3-phenyl-1-((2-(piperazin-1-yl)phenyl)amino)propan-2-yl)thiophene-2-carboxamide] | 1.56 (≈ 3.59 µM) | 0.78 (≈ 1.79 µM) | 0.097 (≈ 0.223 µM) |  |  |  |  | cross-resistance | 33 |  |  |  |  |  |  |  | 
7 | O=C(NC(Cc1ccccc1)C(=O)Nc1cc(F)ccc1N1CCNCC1)c1cccs1 (stereo not shown) [IX-216, N-(1-((5-fluoro-2-(piperazin-1-yl)phenyl)amino)-1-oxo-3-phenylpropan-2-yl)thiophene-2-carboxamide] | 1.56 (≈ 3.45 µM) | 0.78 (≈ 1.72 µM) | 0.097 (≈ 0.214 µM) |  | 280 |  | No rifampin-resistant mutant was found to exhibit cross-resistance | cross-resistance | 11 |  |  |  |  |  |  |  | 
8 | O=C(NC(Cc1ccccc1)C(=O)Nc1ccccc1N1CCNCC1)c1ccccc1F (stereo not shown) [IX-211, 2-fluoro-N-(1-oxo-3-phenyl-1-((2-(piperazin-1-yl)phenyl)amino)-propan-2-yl)benzamide] | 1.56 (≈ 3.49 µM) | 1.56 (≈ 3.49 µM) | 0.09 (≈ 0.202 µM) |  |  |  |  | cross-resistance | 18 |  |  |  |  |  |  |  | 
9 | Cc1ccccc1C(=O)NC(Cc1ccccc1)C(=O)Nc1cc(Cl)ccc1N1CCNCC1 (stereo not shown) [IX-275, N-(1-((5-chloro-2-(piperazin-1-yl)phenyl)amino)-1-oxo-3-phenyl-propan-2-yl)-2-methylbenzamide] | 1.56 (≈ 3.27 µM) | 0.78 (≈ 1.64 µM) | 0.39 (≈ 0.818 µM) |  | 100 |  |  | cross-resistance | 12.5 |  |  |  |  |  |  |  | 
10 | Cc1ccccc1NC(=O)C(Cc1ccccc1)NC(=O)c1ccccc1 (racemic) [AAP1, Nα-benzoyl-N-(2-methylphenyl)-D/L-phenylalaninamide] |  |  |  |  |  | 680 nM | No rifampin-resistant mutant was found to exhibit cross-resistance |  |  | One rifampin-resistant mutant was found to be hypersensitive | 6.25 (≈ 17.4 µM) | 5 × 10^−9/generation | 4 × 10^−9/generation | 5 × 10^−9/generation | > 60 | 0.39 (≈ 1.09 µM) | 0.78 (≈ 2.18 µM)
11 | Cc1ccccc1C(=O)NC(Cc1ccccc1)C(=O)Nc1ccccc1N1CCNCC1 (stereo not shown) [IX-212, 2-methyl-N-(1-oxo-3-phenyl-1-((2-(piperazin-1-yl)phenyl)amino)-propan-2-yl)benzamide] | 1.56 (≈ 3.52 µM) | 1.56 (≈ 3.52 µM) | 0.097 (≈ 0.219 µM) |  |  |  |  | cross-resistance | 15 |  |  |  |  |  |  |  | 
12 | COc1ccc(F)cc1NC(=O)C(Cc1ccccc1)NC(=O)c1ccccc1 (stereo not shown) [IX-73, N-(1-((5-fluoro-2-methoxyphenyl)amino)-1-oxo-3-phenylpropan-2-yl)benzamide] | 1.56 (≈ 3.98 µM) | 0.78 (≈ 1.99 µM) | 0.19 (≈ 0.484 µM) |  |  |  |  | cross-resistance | >100 |  |  |  |  |  |  |  | 
13 | Cc1ccc(Cl)cc1NC(=O)C(Cc1ccccc1)NC(=O)c1ccccc1F (stereo not shown) [IX-55, N-(1-((5-chloro-2-methylphenyl)amino)-1-oxo-3-phenylpropan-2-yl)-2-fluorobenzamide] | 1.56 (≈ 3.8 µM) | 3.12 (≈ 7.61 µM) | 0.39 (≈ 0.949 µM) |  | 470 |  |  | cross-resistance | 10 |  |  |  |  |  |  |  | 
